Laboratory results from patent US20250195604A1, “Compositions and Methods of Treatment of Certain Vasculitis Syndromes” (Soligenix, Inc., priority 2023, published 2025).
Entries after “also recorded” stand apart in the source; their conditions may differ. Where two headings read alike, the source gives them in different places. No end group written: not given here.

Assays:
[1] = system: mucositis (oral and lower GI tract); conditions: mice after chemotherapy, Kudrimoti 2016; cited from earlier work
MRSA [2] = experiment: IV MRSA challenge model (bacteremia) in mice
[3] = system: whole blood stimulated with LPS (E. coli); experiment: Phase 1 study: in vitro LPS stimulation of whole blood from SAD and MAD volunteers, cytokine and chemokine analytes; type: in vivo, human
Experimental: Solid lines indicate the mean response, dashed lines the respective 95% CI for the population.
(§1) In a Phase 1 study, patients received single ascending doses (0.15 to 8.0 mg/kg) and multiple ascending doses (daily 7× 0.5 to 6.5 mg/kg) of dusquetide as 4-minutes IV infusions. To determine the pharmacodynamic profile of dusquetide, cytokine and chemokine analytes were quantified after 4 h of in vitro stimulation of whole blood with LPS (E. coli) to determine dusquetide effects on dose, gender and any extended impact on PD.
The following panel of cytokine and chemokine analytes were quantified: IL-la; IL-1B; IL-6; IL-1ra; TNFα; Tumor Necrosis Factor-Receptor II (TNF RII); MCP-1; Macrophage Inflammatory Protein-1alpha (MIP-la; also known as CCL3); MIP-1B (also known as CCL4) and RANTES (also known as CCL5). The dusquetide-treated population (N=56) in the combined SAD and MAD data set was subdivided into “low dose” (N=26, 0.15-2.0 mg/kg) and “high dose” (N=30; 3.0-8.0 mg/kg) groups and these were compared to the combined placebo group (N=22).

[4] = system: fractionated radiation-induced mucositis; experiment: Hamster model of fractionated radiation-induced mucositis; type: in vivo
Source text: Dusquetide has been extensively studied in animal models of both mucosal damage (where damage associated molecular patterns (DAMPS)) trigger the innate defense system) and bacterial infection (where pathogen associated molecular patterns (PAMPS)) trigger the innate defense system).

[5] = system: human blood challenged with LPS; experiment: LPS challenge of human blood exposed to dusquetide in vitro; type: cell-based; conditions: dusquetide exposure in vitro
Source text: (§2) The innate immune system involves numerous cell types distributed throughout the body in both circulating and tissue-resident compartments. The interaction of all the cells defines the aggregate response. […] Nevertheless, cellular and molecular studies with individual cell types or sub-groups of cell types are informative but must be interpreted cautiously when used to predict the behavior of the system in vivo. […] By contrast, when dusquetide exposure of either mouse or human blood occurs in vitro, although the TNFα response to LPS challenge is unaffected, the MCP-1 response is reduced. The responses of mouse and human primary blood cells to dusquetide in this in vitro setting are quantitatively and qualitatively similar.

[6] = system: severe oral mucositis (SOM); experiment: Phase 2 study of oral mucositis in head and neck cancer patients receiving radiation and cisplatin (IDR-OM-01); type: in vivo, human
Experimental: The Phase 2 study was designed to examine the effects of dusquetide on ameliorating OM in patients with oral or oropharyngeal squamous cell carcinoma who were undergoing therapy with fractionated radiation (2.0-2.2 Gy per day for a total planned cumulative dose of 55-75 Gy) and chemotherapy with cisplatin given either as “low dose” (30-40 mg/m2 every week) or as “high dose” or “aggressive” cisplatin (80-100 mg/m2 given every 3 weeks). Dusquetide was evaluated in this dose ranging study at doses of 1.5, 3.0 (3 patients only) and 6.0 mg/kg.

[7] = system: dextran sulphate sodium (DSS)-induced colitis; conditions: Kudrimoti 2016, levels comparative to maximal steroid use; cited from earlier work
[8] = system: dextran sulphate sodium (DSS)-induced colitis; design: species or system male C57BL/6 mice; conditions: mouse, in vivo
[9] = system: nonhuman primate (NHP) primary cell cultures; conditions: North 2016; cited from earlier work
[10] = system: MRSA, S. aureus, K. pneumoniae, B. pseudomallei; conditions: mouse, in vivo; cited from earlier work
[11] = system: mouse blood cells challenged with LPS; experiment: Ex vivo LPS challenge of mouse blood cells after in vivo dusquetide
Source text: as §2
(§3) Further studies have explored the ability of blood cells to respond to a pathogen (or pathogen-like) challenge in vitro after prior exposure to dusquetide in vivo—an “ex vivo” test system that provides information about the “responsiveness” of the innate defense system. The responsiveness of mouse and NHP innate defense systems have been characterized by measuring changes in cytokine and chemokine production following ex vivo challenge of blood cells with LPS. In general, no evidence of broad-spectrum activation was observed.

[12] = system: mouse primary cell cultures; conditions: North 2016; cited from earlier work
NFKB = NFKB activation on dusquetide binding to p62; type: cell-based
MRSA [13] = experiment: MRSA infection in athymic nude mice; type: in vivo
[14] = system: cytokine or chemokine levels; experiment: Circulating cytokine and chemokine levels in normal mice; type: in vivo, mouse
[15] = system: cytokine and chemokine levels; experiment: Circulating cytokine and chemokine levels in NHPs; type: in vivo, NHP
[16] = Phase 1 studies, safety of IV dusquetide; type: in vivo, human; conditions: dose levels of 0.15 to 8.0 mg/kg
Experimental: The dosage form of dusquetide is an aqueous, aseptically processed, sterile solution for injection. Each vial contains 5 mL of a 60 mg/mL solution (300 mg of dusquetide). Dusquetide is formulated in water for injection and pH adjusted to a target value of 6.0. The preferred formulation of the present invention contains no excipients and has an osmolality of ˜300 mOsm/kg. Dusquetide drug product is diluted in sterile saline to the appropriate concentration for injection, determined on a mg/kg basis by the recipient's weight at a dose level of 1.5 mg/kg. Diluted dusquetide is administered as an intravenous (IV) infusion in 25 mL over 4 minutes, once every third day.
as §1

[17] = system: human epithelial cell lines; experiment: Signalling after dusquetide exposure in human epithelial cell lines; type: cell-based
[18] = system: response to lipopolysaccharide; conditions: North 2016, Yu 2009; cited from earlier work
[19] = system: severe oral mucositis (SOM); conditions: cited from earlier work; for overall infection rate: Kudrimoti 2016
[20] = system: mouse macrophage-like cell line; experiment: Signalling after dusquetide exposure in mouse macrophage-like cell line; type: cell-based
[21] = system: mouse blood challenged with LPS; experiment: LPS challenge of mouse blood exposed to dusquetide in vitro; type: cell-based; conditions: dusquetide exposure in vitro
Source text: as §2

[22] = system: mouse macrophage-like cell line; conditions: medium of dusquetide-incubated splenocytes, North 2016; cited from earlier work
[23] = system: severe oral mucositis (SOM); experiment: Phase 3 study IDR-OM-02, oral mucositis in head and neck cancer patients receiving chemoradiation; type: in vivo, human; conditions: 1.5 mg/kg twice per week
Experimental: Subsequently a Phase 3 international study (Study IDR-OM-02) evaluated dusquetide in the treatment of […] in head and neck cancer patients receiving concomitant chemoradiation therapy (at least 55 Gy radiation therapy and 80 to 100 mg/m2 cisplatin received every third week). 266 patients were enrolled in the randomized, blinded and placebo-controlled study assessing treatment with 1.5 mg/kg dusquetide administered twice per week as a 4-minute infusion.

[24] = system: human primary cell cultures; conditions: North 2016; cited from earlier work
bacterial challenge = experiment: Bacterial challenge in mice rendered leukopenic by cyclophosphamide; type: in vivo, mouse
MRSA [25] = conditions: mouse, in vivo
[26] = system: NHP blood cultured with LPS; experiment: Ex vivo LPS challenge of NHP blood after in vivo dusquetide; conditions: for IL-1β response to LPS / MIP-la response to LPS: NHP
Source text: as §3

[27] = molecular target: sequestosome-1, also known as p62 (Homo sapiens, UniProt Q13501); conditions: Yu 2009, Zhang 2022; cited from earlier work
sequestosome-1, also known as p62, sequence (Q13501 whole entry): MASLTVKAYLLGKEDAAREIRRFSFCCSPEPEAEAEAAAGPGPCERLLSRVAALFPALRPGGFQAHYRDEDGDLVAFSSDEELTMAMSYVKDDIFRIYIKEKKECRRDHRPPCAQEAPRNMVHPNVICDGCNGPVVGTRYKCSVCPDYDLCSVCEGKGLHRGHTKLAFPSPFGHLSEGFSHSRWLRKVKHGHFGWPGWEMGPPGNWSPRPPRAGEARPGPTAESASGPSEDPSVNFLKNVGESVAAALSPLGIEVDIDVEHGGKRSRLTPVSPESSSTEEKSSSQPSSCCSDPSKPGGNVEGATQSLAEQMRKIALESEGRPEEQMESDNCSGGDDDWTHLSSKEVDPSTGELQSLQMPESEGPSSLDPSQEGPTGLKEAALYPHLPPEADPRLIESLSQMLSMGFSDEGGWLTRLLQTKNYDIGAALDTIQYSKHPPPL

p62 = p62 (Homo sapiens, UniProt Q13501); conditions: Yu 2009; cited from earlier work
p62, sequence (Q13501 whole entry): as above

[28] = low dose group (0.15-2.0 mg/kg)
[29] = low dose group (0.15-2.0 mg/kg), 1 h timepoint, vs placebo or high dose
[30] = hamster, fractionated radiation
[31] = 1.5 mg/kg, all patients, vs placebo
[32] = 1.5 mg/kg, every 3rd week cisplatin subpopulation
[33] = 1.5 mg/kg, every 3rd week cisplatin subpopulation, vs placebo
[34] = dusquetide in vivo before culture
[35] = longer term, 12-24 h after administration
[36] = short term, 1 to 4 h after administration, modest

Substance: RIVPA-NH2 [dusquetide, L-arginyl-L-isoleucyl-L-valyl-L-prolyl-L-alanine-amide]
- duration of mucositis [1]: decreased
- intensity of mucositis [1]: decreased
- relation to antibiotic administration (MRSA [2]; IV, therapeutic or prophylactic administration): complementary to antibiotic administration
- IV dose at which efficacy is consistently seen (MRSA [2]; mice, IV): greater than or equal to 5 mg/kg
- duration of PD effects of a single dose (MRSA [2]; mice, depending on the dose level): up to 5 days
- circulating half-life (MRSA [2]; mouse, in vivo): short
- measured cytokine and chemokine analytes ([3]; high dose group (3.0-8.0 mg/kg)): very similar to the placebo group
- ratio IL-1ra/IL-1B [3, 28]: more distinct increased responses
- ratio TNF RII/TNFα [3, 28]: more distinct increased responses
- IL-1B after LPS stimulation of whole blood [3, 29]: slightly decreased
- IL-1ra after LPS stimulation of whole blood [3, 29]: slightly increased
- IL-1x after LPS stimulation of whole blood [3, 29]: slightly decreased
- TNFα after LPS stimulation of whole blood [3, 29]: slightly decreased
- efficacy by regimen ([4]; every 2nd or 3rd day at 25 mg/kg): effective
- duration of SOM [4, 30]: decrease
- intensity of SOM [4, 30]: decrease
- MCP-1 response to LPS challenge [5]: reduced
- TNFα response to LPS challenge [5]: unaffected
- median duration of SOM ([6]; 1.5 mg/kg, all patients): 9 days
- reduction in median duration of SOM vs placebo ([6]; 1.5 mg/kg, all patients): 50%
- reduction in median AUC for the WHO Grade-time calculation [6, 31]: 39%
- reduction in the incidence of SOM [6, 31]: 7%
- decrease in median duration of SOM vs placebo [6, 32]: 67%
- median duration of SOM [6, 32]: 10 days
- onset of disease [6, 32]: no impact
- reduction in median AUC WHO Grade-time calculation [6, 33]: 51%
- relative reduction in incidence of SOM [6, 33]: 18%
- AUC (WHO Grade-time) ([6]; 1.5 mg/kg, weekly cisplatin): 10.5
- decrease in median duration of SOM vs placebo ([6]; 1.5 mg/kg, weekly cisplatin): 50%
- median duration of SOM ([6]; 1.5 mg/kg, weekly cisplatin): 5 days
- reduction in the AUC vs placebo ([6]; 1.5 mg/kg, weekly cisplatin): 55%
- most efficacious dose ([6]; dose ranging 1.5, 3.0 and 6.0 mg/kg): 1.5 mg/kg
- protection of the lower GI [7]: further protection
- degree of response compared with 3 mg/kg prednisolone of 0.5 mg/kg budesonide [8]: similar
- expression patterns of chemokines such as MCP-1 [9]: modulated
- bacterial growth [10]: reduced bacterial growth
- survival [10]: increased survival
- ex vivo MCP-1 response to LPS [11, 34]: increases
- ex vivo TNFα response to LPS [11, 34]: decreases
- responses of most analytes (58 cytokines and chemokines) to LPS [11, 34]: insignificant changes
- ex vivo MCP-3 response to LPS ([11]; dusquetide in vivo vs saline): increases
- expression patterns of chemokines such as MCP-1 [12]: modulated
- activation of NFKB (NFKB): does not cause persistent activation
- survival (MRSA [13]): survival benefit
- cytokine or chemokine levels [14]: no changes
- MCP-1 levels ([15]; NHP, transient): modest changes
- IL-1ra level ([15]; NHPs): marked but variable increase
- levels of most cytokines and chemokines ([15]; NHPs): no substantial changes
- safety of administration [16]: safely administered
- C/EBPB activation [17]: transient activation
- p38 MAP kinase activation [17]: transient activation
- ILIra relative to IL-1B [18]: increasing
- TNFRII relative to TNFα [18]: increasing
- formulation of oral ulcers ([19]; Kudrimoti 2016, Kudrimoti 2017): suppress
- overall infection rate [19]: reduction
- overall infection rate ([19]; listed as Dusquetide): decreasing
- C/EBPB activation [20]: transient activation
- p38 MAP kinase activation [20]: transient activation
- MCP-1 response to LPS challenge [21]: reduced
- TNFα response to LPS challenge [21]: unaffected
- IL-6 response of macrophage cell line [22]: suppressing
- IL-10 response of macrophage cell line [22]: suppressing
- TNFα response of macrophage cell line [22]: suppressing
- response in duration of SOM ([23]; intent to treat (ITT) population): not
- response in duration of SOM ([23]; per protocol (PP) population): statistically significant response
- expression patterns of chemokines such as MCP-1 [24]: modulated
- survival (bacterial challenge): survival benefit
- swelling of abraded skin (MRSA [25]): reduced
- ulceration of abraded skin (MRSA [25]): reduced
- IL-1β response to LPS [26, 35]: mild elevations
- MIP-la response to LPS [26, 35]: mild elevations
- IL-1β response to LPS [26, 36]: decreases
- MIP-la response to LPS [26, 36]: decreases
- IL-1ra response to LPS ([26]; blood from dusquetide-treated NHP): marked increase
- responses of most analytes (47 cytokines and chemokines) to LPS ([26]; primate, dusquetide in vivo before culture): insignificant changes
- binding to sequestosome-1 (p62) [27]: bind (but not inhibit); also recorded: binds
- p62 interaction with PKCS (p62): no effect
- p62 interaction with RIP1 (p62): selectively alters
- p62 interaction with TRAF6 (p62): no effect
